Source: article PMC12192727, “Strategies to Develop Na,K-ATPase-α4 Inhibitors as Male Contraceptives” (International Journal of Molecular Sciences, 2025)
Where two headings read alike, the source gives them in different places. Marks after values point to notes of the source that are not given here.

Assays:
[1] = in vitro; conditions: dog, MDCK, MDCK cells
[2] = system: Salmonella typhimurium strains TA98 and TA100; experiment: Mini Ames test; type: cell-based; conditions: with and without S9
Method: The mutagenic potential of 45 was evaluated using the Mini Ames test, which measures reverse mutations at the histidine locus in Salmonella typhimurium strains TA98 and TA100. The assay was conducted with and without exogenous metabolic activation (β-naphthoflavone/phenobarbital-induced rat liver S9). The experimental details are reported in the Supporting Information).

[3] = Stability in PBS (pH 7.4); type: physicochemical; conditions: PBS pH 7.4, compound remaining after 60 min
Method: Solubility, permeability, compound stability, metabolic stability, and toxicity studies were performed at Pharmaron (Waltham, MA, USA).

[4] = molecular target: T1, hERG channel (Homo sapiens, UniProt Q12809); experiment: hERG inhibition manual patch-clamp assay (HEK293)
[5] = system: Caco-2 cells; experiment: Caco-2 cell permeability; type: in vitro ADME, human; conditions: Caco-2 cell line
Method: (§1) The in vitro permeability and potential to be transported by P-gp (P-glycoprotein) were determined in a Caco-2 or MDCK cell line. Values are reported for a mass recovery > 60%. The efflux ratio was determined as follows: P^app(B-A)/Papp(A-B). The experimental details are reported in the Supporting Information (Tables S2–S5).
(§2) The recovery can be determined using the following equation:
(§3) Recovery%=(VA×[drug]acceptor+VD×[drug]donor)/(VD×[drug]initial, donor)
(§4) Where VA is the volume (in mL) in the acceptor well (0.235 mL for Ap→Bl flux, and 0.075 mL for
(§5) Bl→Ap), VD is the volume (in mL) in the donor well (0.075 mL for Ap→Bl flux, and 0.235 mL for
(§6) The leakage of Lucifer Yellow, in unit of percentage (%), can be calculated using the following
(§7) %LY leakage = 100×[LY]acceptor×0.3/([LY]donor×0.1+[LY]acceptor×0.3)
(§8) LY leakage of <1% is acceptable to indicate the well-qualified MDCK/ Caco-2 monolayer.
(§9) Table S5 . The Assessment of Caco-2 Cell Monolayer Integrity
(§10) The apparent permeability coefficient (Papp), Efflux ratio (ER), recovery percentage, and LY leakage percentage can be
(§11) calculated for Caco-2 Cell drug transport assays using the above equations. […]

[6] = Caco-2 cell permeability; type: in vitro ADME, human; conditions: human
Method: as §1, §2, §3, §4, §5, §6, §7, §8, §9, §10, §11

[7] = molecular target: T1, hERG channel
[8] = system: mouse sperm; experiment: Sperm motility after intraperitoneal administration to mice; type: in vivo; conditions: intraperitoneal 40 mg/kg for three days
Method: To determine whether our compounds had in vivo activity, we tested the effect of 45 after intraperitoneal administration to mice. Compound 45 was injected at a dose of 40 mg/kg for three days. This procedure is based on our previous protocol used for ouabain derivatives. After treatment for 3 days, the animals were sacrificed, sperm was isolated from the cauda epididymis, and sperm motility was assessed using CASA. Compound 45 inhibited total sperm motility by approximately 60% (Figure 9A).
Compound 45 was administered to mice by intraperitoneal injection at a dose of 40 mg/kg of body weight for three days. This protocol was used based on our previous results. At day 3 of treatment, the animals were sacrificed, and sperm was collected from the caudal section of the epididymis. Sperm was incubated under non-capacitating and capacitating conditions, and total and hyperactive sperm motility was determined using CASA.
Figure 9 Effect of compound 45 on total (A) and hyperactive (B) sperm motility in mice in vivo. 45 was administered via intraperitoneal injection at a dosage of 40 mg/kg of body weight for 3 days. Total and hyperactive sperm motility was assessed using sperm from the cauda epididymis. Hyperactive motility was evaluated after incubating the cells in a medium that supports sperm capacitation for 1 h. Sperm motility was analyzed using CASA. […]

[9] = In vivo pharmacokinetic study; set-up: species or system CD-1 mice; conditions: for Plasma concentration (mean): BLOQ = 0.5 ng/mL; for MRT inf: read-out: MRTInf_obs
Method: Male CD-1 mice (approximately 6–8 weeks old, weighing 20–25 g, supplied by Vital River, Beijing, China) were used for the pharmacokinetic studies. Each mouse (n = 2) received either a bolus intravenous injection via the tail vein or oral gavage administration of the test compound. The formulation consisted of 20% HP-b-CD in PBS (pH 7.4), administered at a dose level of 10 mg/kg. The intravenous dose volume was 5 mL/kg, while the oral dose volume was 10 mL/kg. […] At the end of the study, the mice were euthanized by the inhalation of rising carbon dioxide concentrations. Samples were centrifuged at 4000× g for 5 min at 4 °C to obtain plasma. The plasma samples were stored at −75 ± 15 °C before analysis. Plasma samples were analyzed using the LC/MS/MS method. WinNonlin (PhoenixTM, version 8.3) software was employed for pharmacokinetic analysis calculations. The experimental details are reported in the Supporting Information. […]
Snap Shot PK of 45 in CD1-Mice
Formulations IV 20% HP-b-CD in PBS
(1 picture or pasted object on this page, not shown here)
Dosing Solutions: IV 2 mg/mL
IV&PO Plasma: 0 .5, 1, 3, and 5 h
Blood Sampling @ post dose
Mobile Phase A 5% Acetonitrile in Water (0.1%Formic acid)
Quantification Internal Standard Method
10 uL of plasma sample + 5 uL of blank solution +
200 uL of acetonitrile for PPE (protein precipitation
1. BLOQ = 0.5 ng/mL for plasma
3. PK parameters were estimated by non-compartmental model using WinNonlin 8.3
4. The bioavailability (F%) was calculated as following: […]

[10] = male, CD-1, mouse, plasma, CD1 mice, IV 10 mg/kg
[11] = male, CD-1, mouse, plasma, CD1 mice, PO 10 mg/kg
[12] = male, CD-1, mouse, plasma, IV 10 mg/kg
[13] = male, CD-1, mouse, plasma, PO 10 mg/kg
[14] = male, CD-1, mouse, CD1 mice, IV 10 mg/kg, plasma

T1 sequence (Q12809 whole entry): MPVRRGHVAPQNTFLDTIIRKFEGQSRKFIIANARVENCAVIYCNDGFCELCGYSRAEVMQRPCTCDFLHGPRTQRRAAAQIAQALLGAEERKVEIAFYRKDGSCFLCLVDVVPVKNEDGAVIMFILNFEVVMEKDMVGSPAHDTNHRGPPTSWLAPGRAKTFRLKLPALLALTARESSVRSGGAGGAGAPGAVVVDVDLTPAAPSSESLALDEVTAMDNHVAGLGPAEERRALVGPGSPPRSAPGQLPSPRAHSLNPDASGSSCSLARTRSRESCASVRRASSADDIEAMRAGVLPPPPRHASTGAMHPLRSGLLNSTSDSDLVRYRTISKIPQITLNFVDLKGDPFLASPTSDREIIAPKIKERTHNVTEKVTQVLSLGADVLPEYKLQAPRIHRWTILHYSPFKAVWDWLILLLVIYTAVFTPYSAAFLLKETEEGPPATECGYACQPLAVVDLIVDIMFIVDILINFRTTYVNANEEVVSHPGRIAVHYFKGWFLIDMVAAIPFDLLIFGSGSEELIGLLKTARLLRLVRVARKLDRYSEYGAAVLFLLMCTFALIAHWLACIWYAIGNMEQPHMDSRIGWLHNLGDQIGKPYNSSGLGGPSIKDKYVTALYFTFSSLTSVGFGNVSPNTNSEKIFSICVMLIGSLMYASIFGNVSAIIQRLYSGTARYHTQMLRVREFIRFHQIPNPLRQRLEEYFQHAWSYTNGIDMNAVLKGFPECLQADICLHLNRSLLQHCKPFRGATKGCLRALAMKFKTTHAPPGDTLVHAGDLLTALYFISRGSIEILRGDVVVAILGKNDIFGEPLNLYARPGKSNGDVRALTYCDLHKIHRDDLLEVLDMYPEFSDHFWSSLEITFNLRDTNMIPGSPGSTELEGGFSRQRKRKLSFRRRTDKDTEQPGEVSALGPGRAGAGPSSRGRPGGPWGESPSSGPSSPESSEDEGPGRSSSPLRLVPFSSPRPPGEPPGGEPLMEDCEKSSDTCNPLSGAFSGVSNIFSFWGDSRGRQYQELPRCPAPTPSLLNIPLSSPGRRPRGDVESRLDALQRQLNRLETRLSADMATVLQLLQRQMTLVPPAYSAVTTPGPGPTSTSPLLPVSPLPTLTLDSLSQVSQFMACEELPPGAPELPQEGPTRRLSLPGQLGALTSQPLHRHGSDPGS

**Q.** Which results are given for `C[C@]12CC[C@H]3[C@@H](CC=C4C[C@@H](O)CC[C@@]43C)[C@@H]1CC[C@@H]2c1cn(Cc2ccccc2)nn1` [Compound 13, (3S,8S,9S,10R,13S,14S,17S)-17-(1-Benzyl-1H-1,2,3-triazol-4-yl)-10,13-dimethyl-2,3,4,7,8,9,10,11,12,13,14,15,16,17-tetradecahydro-1H-cyclopenta[a]phenanthren-3-ol]?
**A.** recovery ([1]; Recovery (%) AP-BL): 70.2%; recovery ([1]; Recovery (%) BL-AP): 88.1%

**Q.** For `CC12CCC(=O)C=C1CCCC2n1cc(-c2ccccc2)nn1` (centres unmarked) [Compound 45, 4a-Methyl-5-(4-phenyl-1H-1,2,3-triazol-1-yl)-4,4a,5,6,7,8-hexahydronaphthalen-2(3H)-one], which “Mini Ames” value [2] is on record?
**A.** Mini Ames ^e: negative

**Q.** And the Stability [3]?
**A.** Stability: 96% ^a

**Q.** What about the IC50 [4] of the same molecule?
**A.** > 30 µM

**Q.** And the “Permeability Papp (A-B)” value [5]?
**A.** good

**Q.** And the Papp A→B ([6]; Caco-2, Caco-2 cell line, read-out: Permeability Papp (A-B))?
**A.** 24 ×10⁻⁶ cm/s

**Q.** And the Papp A→B ([6]; Caco-2, Caco-2 cells, read-out: Papp (A-B))?
**A.** 24 ×10⁻⁶ cm/s

**Q.** What about the recovery ([6]; Caco-2, Caco-2 cells, read-out: Recovery (%) AP-BL) of the same molecule?
**A.** 64.3%

**Q.** What about the recovery ([6]; Caco-2, Caco-2 cells, read-out: Recovery (%) BL-AP) of the same molecule?
**A.** 77.9%

**Q.** And the Papp B→A ([6]; Caco-2 cells)?
**A.** 11.8 ×10⁻⁶ cm/s

**Q.** What about the efflux ratio ([6]; Caco-2 cells, Papp(B-A)/Papp(A-B)) of the same molecule?
**A.** 0.49

**Q.** And the “hERG IC50” value [7]?
**A.** weak inhibitor

**Q.** And the “Hyperactive sperm motility in vivo” value ([8]; capacitating medium 1 h)?
**A.** reduced

**Q.** What about the “Inhibition of total sperm motility in vivo” value ([8]; cauda epididymis sperm, CASA) of the same molecule?
**A.** approximately 60%

**Q.** What about the AUC_%Extrap_obs ([9]; CD1 mice, IV 10 mg/kg) of the same molecule?
**A.** 0.250%

**Q.** What about the AUClast/D ([9]; CD1 mice, IV 10 mg/kg) of the same molecule?
**A.** 55.9 kg·ng·h/mL/mg

**Q.** What about the Vss_obs ([9]; CD1 mice, IV 10 mg/kg (supplement)) of the same molecule?
**A.** 1.10 L/kg

**Q.** What about the AUC_%Extrap_obs ([9]; CD1 mice, PO 10 mg/kg) of the same molecule?
**A.** 3.43%

**Q.** And the AUClast/D ([9]; CD1 mice, PO 10 mg/kg)?
**A.** 7.43 kg·ng·h/mL/mg

**Q.** What about the “F% (oral bioavailability)” value ([9]; CD1 mice, PO 10 mg/kg, 10 mg/kg) of the same molecule?
**A.** 13.7%

**Q.** And the “Plasma concentration (mean)” value ([9]; IV 10 mg/kg, 3 h)?
**A.** BLOQ

**Q.** And the “Plasma concentration (mean)” value ([9]; IV 10 mg/kg, 5 h)?
**A.** BLOQ

**Q.** What about the bioavailability ([9]; male, CD-1, mouse, plasma, po, 10 mg/kg, CD1 mice, PO 10 mg/kg, read-out: F% (oral bioavailability)) of the same molecule?
**A.** 14%

**Q.** What about the AUC(0-inf) [9, 10] of the same molecule?
**A.** 561 ng·h/mL

**Q.** What about the AUC(0-t) [9, 10] of the same molecule?
**A.** 559 ng·h/mL

**Q.** What about the half-life [9, 10] of the same molecule?
**A.** 7.5 min

**Q.** What about the Vd ([9]; male, CD-1, mouse, plasma, CD1 mice, IV 10 mg/kg (Table 5), read-out: Vss) of the same molecule?
**A.** 1.1 L/kg

**Q.** And the MRT inf [9, 10]?
**A.** 3.7 min

**Q.** What about the AUC(0-inf) [9, 11] of the same molecule?
**A.** 77 ng·h/mL

**Q.** What about the AUC(0-t) [9, 11] of the same molecule?
**A.** 74.3 ng·h/mL

**Q.** And the Tmax [9, 11]?
**A.** 30 min

**Q.** What about the half-life [9, 11] of the same molecule?
**A.** 64.2 min

**Q.** And the MRT inf [9, 11]?
**A.** 67.8 min

**Q.** And the concentration at 0.5 h [9, 12]?
**A.** 124 ng/mL

**Q.** And the concentration at 1 h [9, 12]?
**A.** 7.76 ng/mL

**Q.** And the concentration at 0.5 h [9, 13]?
**A.** 79.7 ng/mL

**Q.** What about the concentration at 1 h [9, 13] of the same molecule?
**A.** 22.8 ng/mL

**Q.** And the concentration at 3 h ([9]; male, CD-1, mouse, plasma, PO 10 mg/kg, 3 h)?
**A.** 2.14 ng/mL

**Q.** What about the concentration at 5 h ([9]; male, CD-1, mouse, plasma, PO 10 mg/kg, 5 h) of the same molecule?
**A.** 1.71 ng/mL

**Q.** What about the clearance ([9]; male, CD-1, mouse, plasma, mice, intravenous 10 mg/kg, read-out: clearance rate) of the same molecule?
**A.** 297 mL/min/kg

**Q.** What about the C0 [9, 14] of the same molecule?
**A.** 1980 ng/mL

**Q.** What about the Cmax [9, 14] of the same molecule?
**A.** 124 ng/mL

**Q.** And the Cmax ([9]; male, CD-1, mouse, CD1 mice, PO 10 mg/kg, plasma)?
**A.** 79.7 ng/mL
